Test results published in ChEMBL document CHEMBL1201862, “PubChem BioAssay data set” (2004).
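In this assay, cells in 96-well plates receive the compound at five concentrations for 48 hours. Endpoints are linearly interpolated between the surrounding concentrations. GI50 marks 50% less growth.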 Calls of active or inactive are those of the source. No stated cut-off is given here; in the data, active = GI50 up to about 1.1 µM and inactive = higher.

Experiments:
Test in all cases: NCI-60 cell line screen, 48 h
[1] = tested on: UACC-62
[2] = tested on: MOLT-4
[3] = tested on: OVCAR-4
[4] = tested on: SK-MEL-28
[5] = tested on: RPMI-8226
[6] = tested on: TK-10
[7] = tested on: HL-60
[8] = tested on: COLO 205
[9] = tested on: SNB-75
[10] = tested on: HCT-15
[11] = tested on: ACHN
[12] = tested on: SF-268
[13] = tested on: SW-620
[14] = tested on: NCI-H23
[15] = tested on: HT-29
[16] = tested on: SK-MEL-2
[17] = tested on: NCI/ADR-RES
[18] = tested on: PC-3
[19] = tested on: SR
[20] = tested on: MDA-MB-231
[21] = tested on: LOX IMVI
[22] = tested on: EKVX
[23] = tested on: OVCAR-8
[24] = tested on: SK-MEL-5
[25] = tested on: BT-549
[26] = tested on: HCT-116
[27] = tested on: A549
[28] = tested on: T47D
[29] = tested on: CCRF-CEM
[30] = tested on: Malme-3M
[31] = tested on: SNB-19
[32] = tested on: MDA-MB-435
[33] = tested on: UACC-257
[34] = tested on: SF-539
[35] = tested on: RXF 393
[36] = tested on: HOP-62
[37] = tested on: SF-295
[38] = tested on: MCF7
[39] = tested on: U-251
[40] = tested on: HOP-92
[41] = tested on: CAKI-1
[42] = tested on: OVCAR-3
[43] = tested on: OVCAR-5
[44] = tested on: K562
[45] = tested on: Hs-578T
[46] = tested on: NCI-H522
[47] = tested on: 786-0
[48] = tested on: IGROV-1
[49] = tested on: DU-145
[50] = tested on: KM12
[51] = tested on: NCI-H226
[52] = tested on: SN12C
[53] = tested on: SK-OV-3
[54] = tested on: M14
[55] = tested on: UO-31
[56] = tested on: NCI-H460

`CC(=O)Nc1ccc2c(c1)C(=O)c1cccc(F)c1-2` was tested, and the GI50 [1] was 38 µM (inactive), the GI50 [2] was 25.3 µM (inactive) and the GI50 [3] was 50.4 µM (inactive). For the same molecule, the GI50 [4] was > 100 µM (inactive), the GI50 [5] was 38.8 µM (inactive) and the GI50 [6] was 55.6 µM (inactive). The GI50 [7] was > 100 µM (inactive), the GI50 [8] was 53 µM (inactive) and the GI50 [9] was 56.2 µM (inactive). The GI50 [10] was 24.7 µM, the GI50 [11] was 36.6 µM (inactive) and the GI50 [12] was 48.1 µM (inactive). The GI50 [13] was 57.3 µM (inactive), the GI50 [14] was 43.9 µM (inactive) and the GI50 [15] was 35.2 µM (inactive). The GI50 [16] was > 100 µM (inactive), the GI50 [17] was 48.2 µM (inactive) and the GI50 [18] was 45.7 µM (inactive). For the same molecule, the GI50 [19] was 19.9 µM (inactive), the GI50 [20] was 30.4 µM (inactive) and the GI50 [21] was 38.2 µM (inactive). The GI50 [22] was > 100 µM (inactive), the GI50 [23] was 58.2 µM (inactive) and the GI50 [24] was 45.4 µM (inactive). The GI50 [25] was 4.45 µM (inactive), the GI50 [26] was 24.2 µM (inactive) and the GI50 [27] was 49.2 µM (inactive). For the same molecule, the GI50 [28] was 24.9 µM (inactive), the GI50 [29] was 38.6 µM (inactive) and the GI50 [30] was > 100 µM (inactive). For the same molecule, the GI50 [31] was > 100 µM (inactive), the GI50 [32] was > 100 µM (inactive) and the GI50 [33] was 97.5 µM (inactive). The GI50 [34] was 0.0234 µM (active), the GI50 [35] was 23.6 µM (inactive) and the GI50 [36] was 51.3 µM (inactive). For the same molecule, the GI50 [37] was 54.2 µM (inactive), the GI50 [38] was 4.33 µM (inactive) and the GI50 [39] was 38.6 µM (inactive). For the same molecule, the GI50 [40] was 65.5 µM (inactive), the GI50 [41] was 41.1 µM (inactive) and the GI50 [42] was 68.2 µM (inactive). For the same molecule, the GI50 [43] was 80.9 µM (inactive), the GI50 [44] was 50.2 µM (inactive) and the GI50 [45] was 37.2 µM (inactive). The GI50 [46] was 36.5 µM (inactive), the GI50 [47] was 71.6 µM (inactive) and the GI50 [48] was 20.1 µM (inactive). The GI50 [49] was 0.113 µM (active), the GI50 [50] was 0.401 µM (active) and the GI50 [51] was 35.2 µM (inactive). For the same molecule, the GI50 [52] was 42.2 µM (inactive), the GI50 [53] was > 100 µM (inactive) and the GI50 [54] was 50.9 µM (inactive). The GI50 [55] was 21.2 µM (inactive) and the GI50 [56] was 35.4 µM (inactive).
